According to patent publication US9029092B2, “Solution phase homogeneous assays” (Beckman Coulter, Inc., priority 2009, dated 2015):
Like-named read-outs stand apart in the source and are kept apart here.

Columns and labels:
[1] = test system: PSA; assay: Screening SSIA by homogeneous PSA immunoassay (anti-PSA-AK1 + anti-PSA-HRP); type: biochemical, human
Method: This example presents one method used for testing of candidate compounds for functionality as SSIA in assays of the present disclosure. Testing was conducted in a model screening immunoassay of the protein PSA. Tests were run using a 96-well microtiter plate format. A solution containing 30 μL of mouse anti-PSA-AK1 (66 ng), 30 μL of mouse anti-PSA-HRP conjugate (7.8 ng), 36 μL of human female serum, and 24 μL of PSA calibrator were pipetted into each well. The plate was incubated at 37° C. for 10 minutes. A 5 μL aliquot of the test compound (various concentrations) was added to each well. Chemiluminescence was triggered by the addition of 100 μL of a solution of a trigger solution whose composition is listed below. The chemiluminescent flash was integrated for 5 seconds after the addition of the trigger solution using a Luminoskan Asent® plate luminometer, (Thermo Fischer Scientific, Inc., Waltham, Mass.).
It is desirable that the improvement factor be at least 2 (S5/S0≧ about 20-30) and more desirable that improvement factor be at least 5 (S5/S0≧ about 50), yet more desirable that S5/S0 be ≧100 in the present screen.

[2] = test system: biotinylated HRP; assay: Model system for selection of SSIA (AK1/streptavidin BSA microparticles + biotinylated HRP); type: biochemical, horseradish; conditions: SSIA 100 μM final; for light intensity, BTN-HRP0: Btn-HRP 0 ng/mL; for light intensity, BTN-HRP0 / light intensity, BTN-HRP1 / light intensity, BTN-HRP10 / light intensity, BTN-HRP100 / light intensity, BTN-HRP250: total HRP 500 ng/mL; for S1/S0: Btn-HRP 1 ng/mL vs 0; for light intensity, BTN-HRP1: Btn-HRP 1 ng/mL; for S2/S0: Btn-HRP 10 ng/mL vs 0; for light intensity, BTN-HRP10: Btn-HRP 10 ng/mL; for S3/S0: Btn-HRP 100 ng/mL vs 0; for light intensity, BTN-HRP100: Btn-HRP 100 ng/mL; for S4/S0: Btn-HRP 250 ng/mL vs 0; for light intensity, BTN-HRP250: Btn-HRP 250 ng/mL
Method: The model system uses a microparticle conjugated to BSA (bovine serum albumin) labeled with a […] and acridan ketenedithioacetal chemiluminescent label (AK1) as the chemiluminescent-labeled sbp, and biotinylated HRP as the activator-labeled specific binding pair. In the model system, varying amounts of Btn-HRP is added to the chemiluminescent-labeled specific binding pair at 0, 1, 10, 100 and 250 ng/mL. Additional unlabeled HRP is added to reach a total HRP of concentration of 500 ng/mL in each reaction mixture. The unlabeled HRP in combination with the activator-labeled sbp was provided to the chemiluminescent-labeled sbp microparticles to emulate sample. A compound for assessment as an SSIA was also added. This reaction mixture of the model system is then triggered by addition of trigger solution in a manner of assays of the present disclosure.
To prepare the chemiluminescent-labeled sbp on microparticles, Bovine Serum Albumin (BSA) was biotinylated with 4× molar excess of biotin-LC-sulfoNHS (Pierce Biotechnology Inc., Rockford, Ill., USA). Unbound reactants were removed via desalting or dialysis. The biotin-BSA was then reacted with a 5× molar excess of an NHS ester of acridan ketenedithioacetal AK1 in 20 mM sodium phosphate pH 7.2: DMSO 75:25, v/v) followed by desalting in the same buffer. The dual labeled (biotin and AK1) BSA was then coupled with tosyl activated M280 microparticles (Invitrogen Corporation, Carlsbad, Calif., USA) in a 0.1M borate buffer pH 9.5 at a concentration of about 20 μg of labeled BSA per mg of microparticles for 16-24 h at 40° C. After coupling the microparticles were stripped for 1 h at 40° C. with 0.2 M TRIS base, 2% SDS, pH˜11. The stripping process was repeated one additional time. Microparticles were then suspended in a 0.1% BSA/TRIS buffered saline (BSA/TBS) buffer and streptavidin (SA) was added at approximately 15 μg SA per mg microparticles. Streptavidin was mixed with the microparticles for 45-50 min at room temperature. The microparticles were then washed three times and suspended in the same BSA/TBS.
HRP, (Roche Diagnostics, Indianapolis, Ind., USA) was biotinylated with 4× molar excess of biotin-LC-sulfoNHS (Pierce Biotechnology Inc., Rockford, Ill., USA). Alternatively, 25× molar excess of biotin-PEO4-NHS may be used. Unbound reactants were removed via desalting or dialysis.
Each SSIA compound for assessment was solubilized in Buffer II at a concentration at least 10× of the working strength concentration.
25 μl of 1 mg/ml of dual-labeled (biotin and AK1) BSA M280 particles were mixed with 45 μl of working concentration SSIA in Buffer II. The assay volume brought to 85 μl by adding 15 μl of Buffer II. 15 μl of sample containing Btn-HRP:HRP at different ratios (The amount of biotinylated-HRP varied from 0, 1, 10, 100 and 250 ng/mL) was added. The reaction mixture was incubated for 30 min at 37° C., then 100 μL of trigger solution was added and the light intensity recorded. Total volume of reaction mixture, including trigger solution was 200 μL with a final concentration of 100 μM of SSIA.
The screening tests were performed using a modified DxI® Immunoassay System (Beckman Coulter, Inc. Brea, Calif.) as described above.

[3] = test system: TnI; assay: Assays utilizing various SSIA in TnI assay; type: biochemical; conditions: for Signal/Noise S1/S0: calibrator S1; for Signal/Noise S2/S0: calibrator S2; for Signal/Noise S3/S0: calibrator S3; for Signal/Noise S4/S0: calibrator S4; for Signal/Noise S5/S0: calibrator S5; for Signal/Noise S6/S0: calibrator S6
Method: In a reaction tube, 400 uL of TnI M6 antibody-HRP conjugate at 0.5 ug/mL in buffered aqueous solution at pH. 8.0 (100 mM Tris, 150 mM NaCl, 0.1 mM EDTA, 0.2% Tween-20 and 1% BSA), 400 uL of AK1˜Dex70/31˜Streptavidin (fraction 1) 2:1 SA/Ab at 2 ug/mL Ab also in buffered aqueous solution at pH 8.0, and 400 uL of calibrator standard solution containing the TnI analyte at a known concentration. One tube was prepared for each calibrator concentration. […] Next, 25 uL of each antioxidant as a concentrated solution of 2 mM, 1 mM or 0.5 mM was pipetted into the plate wells using a repeater pipette. The plates were rotated for 10 seconds to mix and incubated between 5 to 33 minutes. Detection was performed with a SpectraMax L injection plate luminometer.

[4] = test compound final conc. […] ([…]), S5 = 129 ng PSA/mL vs zero PSA
[5] = test compound final conc. 0.244 mM (244 uM)
[6] = test compound final conc. 0.061 mM (61 uM)
[7] = SSIA final concentration 125 uM
[8] = SSIA final concentration 250 uM
[9] = SSIA final concentration 500 uM

SMILES: Cc1ccc(O)c(O)c1
- S5/S0 [1, 4]: 142

SMILES: O=C(O)c1ccc(O)c(O)c1
- S5/S0 [1, 4]: 178

SMILES: Oc1cccc(O)c1O
- S5/S0 [1, 4]: 69

SMILES: O=C(O)c1cc(O)c(O)c(O)c1
- S5/S0 [1, 4]: 135

SMILES: COc1ccccc1O
- S5/S0 [1, 4]: 13

SMILES: Cn1ccnc1S
- S5/S0 ([1]; test compound final conc. 36.7 mM): 102

SMILES: Nc1ncc[nH]1
- S5/S0 ([1]; test compound final conc. 24.4 mM): 14

SMILES: c1ccc2c(c1)Cc1ccccc1N2
- S5/S0 [1]: 120

SMILES: Nc1cc(Cl)ccc1O
- S5/S0 [1, 5]: 205

SMILES: Nc1ccc(O)cc1O
- S5/S0 ([1]; test compound final conc. 0.030 mM): 161

SMILES: O=S(=O)([O-])CCCN1c2ccccc2Sc2ccccc21.[Na+]
- S5/S0 [1, 5]: 50

SMILES: O=C1C(O)=C(O)C(=O)C(O)=C1O
- S5/S0 [1, 6]: 51

SMILES: O=C1C(O)=C(Cl)C(=O)C(O)=C1Cl
- S5/S0 ([1]; test compound final conc. 0.031 mM): 7

SMILES: Nc1cccc(Cl)c1O
- S5/S0 [1, 5]: 300

SMILES: O=S(=O)([O-])CCCN1c2ccccc2Cc2ccccc21.[Na+]
- S5/S0 [1, 5]: 15

SMILES: NNC(=O)c1ccccc1O
- S5/S0 [1, 6]: 23

SMILES: O=C1C=C(O)C(=O)C=C1O
- S5/S0 [1, 5]: 14

SMILES: OB(O)c1cc(Cl)ccc1O
- S5/S0 [1, 5]: 22

SMILES: C=CCc1ccc(O)c(OC)c1
- S5/S0 [1, 5]: 30

SMILES: O=S(=O)([O-])CCCOCCCN1c2ccccc2Cc2ccccc21.[Na+]
- S5/S0 [1, 5]: 6

SMILES: Nc1c(O)ccc2ccccc12
- S5/S0 [1, 4]: 63

SMILES: O=C(O)/C=C/c1ccc(O)c(O)c1
- S5/S0 [1, 4]: 116

SMILES: CC1(C)OC(=O)C(O)=C1O
- S5/S0 [1, 4]: 467

SMILES: CC1=C(O)C(=O)C(C)O1 (stereo not shown)
- S5/S0 ([1]; test compound final conc. 1.25 mM): 237

SMILES: Nc1ccccc1S
- S5/S0 [1, 4]: 234

SMILES: Nc1cc2ccccc2cc1O
- S5/S0 [1, 5]: 67

SMILES: Nc1ccc2ccccc2c1O
- S5/S0 [1, 5]: 109

SMILES: Oc1ccc(O)c(Br)c1
- S5/S0 [1, 4]: 570

SMILES: Nc1cc(C[C@H](N)C(=O)O)ccc1O
- S5/S0 [1, 5]: 448

SMILES: C[C@H]1OC(=O)C(O)=C1O
- S5/S0 [1, 4]: 423

SMILES: O=C1O[C@H]([C@@H](O)CO)C([O-])=C1O.[Na+]
- S5/S0 [1, 4]: 9.2

SMILES: O=C1O[C@H]([C@H](O)CO)C(O)=C1O
- S5/S0 [1, 4]: 10.3

SMILES: Nc1ccccc1O [2-amino phenol, 2-aminophenol]
- light intensity, BTN-HRP0 [2]: 65
- S1/S0 [2]: 5.5
- light intensity, BTN-HRP1 [2]: 356
- S2/S0 [2]: 132.8
- light intensity, BTN-HRP10 [2]: 8,632
- S3/S0 [2]: 32195.4
- light intensity, BTN-HRP100 [2]: 2,092,703
- S4/S0 [2]: 61672.1
- light intensity, BTN-HRP250 [2]: 4,008,689
- effectiveness as SSIA in the model system [2]: demonstrating utility as SSIA
- Signal/Noise S1/S0 [3, 7]: 1.4
- Signal/Noise S1/S0 [3, 8]: 0.9
- Signal/Noise S1/S0 [3, 9]: 1.3
- Signal/Noise S2/S0 [3, 7]: 2.3
- Signal/Noise S2/S0 [3, 8]: 1.7
- Signal/Noise S2/S0 [3, 9]: 1.8
- Signal/Noise S3/S0 [3, 7]: 7.6
- Signal/Noise S3/S0 [3, 8]: 4.5
- Signal/Noise S3/S0 [3, 9]: 4.8
- Signal/Noise S4/S0 [3, 7]: 27.2
- Signal/Noise S4/S0 [3, 8]: 15.4
- Signal/Noise S4/S0 [3, 9]: 10.8
- Signal/Noise S5/S0 [3, 7]: 183.7
- Signal/Noise S5/S0 [3, 8]: 101.7
- Signal/Noise S5/S0 [3, 9]: 52.5
- Signal/Noise S6/S0 [3, 7]: 1604.7
- Signal/Noise S6/S0 [3, 8]: 739.1
- Signal/Noise S6/S0 [3, 9]: 329.9

SMILES: Cc1c(C)c2c(c(C)c1O)CCC(C)(C(=O)O)O2 (stereo not shown) [Trolox ®]
- light intensity, BTN-HRP0 [2]: 173
- S1/S0 [2]: 8.4
- light intensity, BTN-HRP1 [2]: 1,460
- S2/S0 [2]: 215.1
- light intensity, BTN-HRP10 [2]: 37,291
- S3/S0 [2]: 41832.7
- light intensity, BTN-HRP100 [2]: 7,251,008
- S4/S0 [2]: 62274.5
- light intensity, BTN-HRP250 [2]: 10,794,247
- effectiveness as SSIA in the model system [2]: demonstrating utility as SSIA
- Signal/Noise S1/S0 [3, 7]: 1.6
- Signal/Noise S1/S0 [3, 8]: 2.0
- Signal/Noise S1/S0 [3, 9]: 1.7
- Signal/Noise S2/S0 [3, 7]: 3.3
- Signal/Noise S2/S0 [3, 8]: 3.5
- Signal/Noise S2/S0 [3, 9]: 2.6
- Signal/Noise S3/S0 [3, 7]: 11.5
- Signal/Noise S3/S0 [3, 8]: 12.8
- Signal/Noise S3/S0 [3, 9]: 11.3
- Signal/Noise S4/S0 [3, 7]: 44.4
- Signal/Noise S4/S0 [3, 8]: 45.8
- Signal/Noise S4/S0 [3, 9]: 31.1
- Signal/Noise S5/S0 [3, 7]: 302.0
- Signal/Noise S5/S0 [3, 8]: 295.1
- Signal/Noise S5/S0 [3, 9]: 192.0
- Signal/Noise S6/S0 [3, 7]: 2713.1
- Signal/Noise S6/S0 [3, 8]: 2334.5
- Signal/Noise S6/S0 [3, 9]: 1181.7
